The values below come from ChEMBL document CHEMBL1201862, “PubChem BioAssay data set” (2004).

Each structure is given as a SMILES string.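 The compound was tested at five concentrations on cells cultured in 96-well plates, with a 48-hour exposure period. GI50 is the concentration that inhibits growth by half.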 The source made the active and inactive calls. No stated cut-off is given here; in the data, active = GI50 up to about 1.1 µM and inactive = higher.

Holding throughout (assay): NCI tumour cell line growth inhibition, 48 h
For assay [1], the system named is COLO 205.
Assay [2] deals with DU-145.
Assay [3] deals with EKVX.
Assay [4] deals with HCT-116.
In assay [5] the test system is Hs-578T.
Assay [6] deals with K562.
In assay [7] the test system is Malme-3M.
For assay [8], the system named is NCI-H23.
For assay [9], the system named is NCI/ADR-RES.
Assay [10] deals with OVCAR-5.
For assay [11], the system named is PC-3.
In assay [12] the test system is SF-295.
Assay [13] relates to SK-MEL-28.
Assay [14] relates to SK-MEL-2.
Assay [15] relates to SK-OV-3.
Assay [16] concerns T47D.
Assay [17] relates to TK-10.
For assay [18], the system named is U-251.
Assay [19] deals with UACC-257.
Assay [20] relates to UACC-62.

As to `COc1ccc(N2CCN(Cc3c(C(C)=O)[n+]([O-])c4ccccc4[n+]3[O-])CC2)cc1`, the GI50 was 60.8 µM (inactive) in [1]; > 100 µM (inactive) in assay [2]; 75.3 µM (inactive) in assay [3]; 49.5 µM (inactive) in assay [4]; 25.2 µM (inactive) in [5]; > 100 µM (inactive) in assay [6]. Also, the GI50 is 12 µM (inactive) in assay [7]; 10.6 µM (inactive) in assay [8]; 24.5 µM (inactive) in [9]; 68.2 µM (inactive) in [10]; 87.5 µM (inactive) in [11]; 51.8 µM (inactive) in assay [12]. Besides, the GI50 in assay [13] was 43.3 µM (inactive); in assay [14], 54.2 µM (inactive); in assay [15], 32.3 µM (inactive); in assay [16] it was 57.3 µM (inactive); in [17], 9.29 µM (inactive); in assay [18], 45 µM (inactive). Also, the GI50 is 29.8 µM (inactive) in assay [19] and 71.6 µM (inactive) in assay [20].

For `Cn1c(=O)nc2n(CCO)c(-c3ccccc3)c(-c3ccccc3)nc-2c1=O`, the GI50 in assay [1] was > 100 µM (inactive); in [2], > 100 µM (inactive); in assay [3], > 100 µM (inactive); in assay [4], > 100 µM (inactive); in assay [5] it was 86.3 µM (inactive); in [6] it was > 100 µM (inactive). The GI50 in [7], in assay [8], in assay [9], in assay [10], in [11] and in [12] was > 100 µM (inactive) in each case. Further, the GI50 in assay [13], in assay [14], in assay [15], in assay [16], in assay [17] and in assay [18] was > 100 µM (inactive) each time. Besides, the GI50 in [19] and in assay [20] was > 100 µM (inactive) throughout.

As for `O=C(N/N=C\C=C\c1ccc([N+](=O)[O-])o1)C(=O)N/N=C\C=C\c1ccc([N+](=O)[O-])o1`, the GI50 in assay [1] is > 100 µM (inactive); in [2] it was > 100 µM (inactive); in [3], > 100 µM (inactive); in [4], 25.1 µM (inactive); in assay [5], > 100 µM (inactive); in assay [6], > 100 µM (inactive). In addition, the GI50 was > 100 µM (inactive) in assay [7]; > 100 µM (inactive) in assay [8]; 26 µM (inactive) in assay [9]; > 100 µM (inactive) in assay [10]; > 100 µM (inactive) in assay [11]; > 100 µM (inactive) in [12]. For the same molecule, the GI50 in assay [13] was > 100 µM (inactive); in [14], > 100 µM (inactive); in assay [15] it was > 100 µM (inactive); in assay [16] it was 36.2 µM (inactive); in assay [17], 56.9 µM (inactive); in [18], > 100 µM (inactive). For the same molecule, the GI50 in [19] and in [20] was > 100 µM (inactive) in each case.

As for `COc1cc2ccnc3c2c(c1O)N(C)C=C3`, the GI50 in assay [1] is 20.7 µM (inactive); in assay [2] it was 23.7 µM (inactive); in assay [3], 17.4 µM (inactive); in [4] it was 4 µM (inactive); in assay [5] it was 18.7 µM (inactive); in assay [6] it was 4.68 µM (inactive). The GI50 in assay [7] was 6.12 µM (inactive); in [8] it was 17.1 µM (inactive); in assay [9], 18.7 µM (inactive); in [10], 16.7 µM (inactive); in [11], 13.8 µM (inactive); in assay [12], 7.78 µM (inactive). Moreover, the GI50 is 24.9 µM (inactive) in assay [13]; 17.7 µM (inactive) in assay [14]; 13.4 µM (inactive) in [15]; 7.38 µM (inactive) in [16]; 16.2 µM (inactive) in assay [17]; 24.9 µM (inactive) in assay [18]. Moreover, the values for the GI50 in assay [19] and in assay [20] were 15.6 µM (inactive) and 9.93 µM (inactive), respectively.

For `Oc1cc(F)cc2cccnc12`, the GI50 in [1] was 5.89 µM (inactive); in [2] it was 5.58 µM (inactive); in [3], 0.418 µM (active); in assay [4], 1.89 µM (inactive); in assay [5], 3.68 µM (inactive); in assay [6], 0.105 µM (active). For the same molecule, the GI50 in assay [7] is 0.628 µM (active); in [8], 1.09 µM (active); in assay [9], 0.281 µM (active); in [10] it was 3.29 µM (inactive); in [11] it was 1.27 µM (inactive); in [12], 1.1 µM (active). The GI50 is 48 µM (inactive) in assay [13]; 16.4 µM (inactive) in [14]; 4.45 µM (inactive) in assay [15]; 1.3 µM (inactive) in assay [16]; 17.9 µM (inactive) in assay [17]; 0.957 µM (active) in [18]. Also, the results for the GI50 in [19] and in assay [20] were 0.402 µM (active) and 2.73 µM (inactive), respectively.

With `NCCSCC(N)C(=O)O` (stereo not given), the GI50 in assay [1] is > 75.9 µM (inactive); in assay [2], > 90.6 µM (inactive); in [3] it was > 497 µM (inactive); in assay [4], 39.7 µM (inactive); in assay [5] it was > 95.1 µM (inactive); in assay [6] it was 37.2 µM (inactive). Moreover, the GI50 in [7] is > 66.2 µM (inactive); in assay [8], > 497 µM (inactive); in [9], > 100 µM (inactive); in assay [10], > 497 µM (inactive); in [11], > 100 µM (inactive); in [12] it was > 497 µM (inactive). Also, the GI50 is > 497 µM (inactive) in [13]; > 497 µM (inactive) in assay [14]; > 497 µM (inactive) in assay [15]; > 83 µM (inactive) in assay [16]; > 497 µM (inactive) in assay [17]; > 497 µM (inactive) in assay [18]. For the same molecule, the GI50 in assay [19] and in assay [20] was > 497 µM (inactive) throughout.
